Read-outs that look alike come from different tables or passages of the source.
Assays:
Male Sprague Dawley rats [1] = test: Thermal analgesic activity in CFA-induced inflammatory acute pain (Plantar test); format: in vivo, rat; conditions: one hour post daily administration, third day of treatment
Protocol: The thermal analgesic effect induced by compounds of the present invention on inflammatory acute pain was assessed. Inflammatory pain and paw edema were induced by intraplantar injection of 50% Complete Freund's Adjuvant (CFA) suspension in the animal hind paw.
Male Sprague Dawley rats (average body weight 200 g, Harlan, Israel) were transiently sedated by placement on dry ice for the duration of the injections. Rats were injected subcutaneously, in the subplantar region of one (right) paw with 0.15 ml of 50% w/v CFA in sterile saline. […] Test compounds were administered i.p. at initial single dose of 10-60 mg/kg (depending on the test compound), and volume dose of 5 ml/kg, 24 hours post CFA injection. Vehicle and Celecoxib treated animals were used as controls. Each treatment group comprised at least six animals.
Prior to, 48 hours post induction of inflammatory pain and one hour after daily drug administration, the animals reaction to pain stimuli was tested by thermal stimulus. The thermal analgesia was assessed using a Plantar test (Ugo Basile). At the end of the study, animals were euthanized.
Results, expressed as percent of baseline value (% reversal) or withdrawal latency, are depicted in FIGS. 9 and 10. […] Results are expressed as mean±SEM for each treatment group and the differences among those groups are analyzed by T-test. […]

female BALB/c mice = test: Dextran Sulfate Salt (DSS)-induced acute colitis; format: in vivo, mouse; conditions: for % Survival / Clinical score / Percentage change in body weight: i.p.
From the text: In order to test the activity of compounds of the invention in an animal model of inflammatory bowel disease, female BALB/c mice 9-12 week old (Harlan, Israel) were used for Dextran Sulfate Salt (DSS)-induced acute colitis studies. Mice (ten per treatment group) were provided with a solution of tap water containing 5% DSS (MW. 36000-50000; MP Biomedicals, LLC) ad libitum over an 8 day period. The DSS solution was replenished every other day and switched to tap water at day 8. Body weight was measured daily. The clinical scores combined both macroscopic (diarrhea, body weight, mortality) as well as microscopic (pathological) scores. Diarrhea score in the studies for each animal represented the daily summary of stool consistency (scored as: 0, normal; 1, soft but still formed; 2, very soft; 3, diarrhea) and the presence of blood in stool (scored: 0, None; 1, visible blood traces in stool; 2, signs of blood; 3, rectal bleeding). At the end of experiment animals were euthanized and their colons are examined for signs of pathological damage. The pathological scores, colon length and weight were determined from the cecum to the anus (scored: 0, normal; 1, slight inflammation; 2, moderate inflammation and/or edema; 3, heavy inflammation and/or ulceration and/or edema).
Two compounds were tested in DSS-induced colitis in mice, compounds 4 and 58. […] Results are expressed as mean ± SEM for each treatment group and the differences among those groups are analyzed by T-test. Two crosshatches indicate a p value below 0.01 and three indicate a p value below 0.001. Asterisks denote statistical significant weight loss relative to animal weight in the beginning of the experiment.
Alternatively, compound 58 (30 mg/kg) was administered orally from the first day of DSS administration (day 1) until the end of the experiment (day 10).

human CB2 receptor = human CB2 receptor (Homo sapiens (Human), UniProt P34972); test: [35S]GTPγS-binding assay, functional activity at the human CB2 receptor; format: biochemical
Protocol: Functional activity of compounds of the invention toward the cannabinoid receptors was determined by stimulation of [^35S]-GTPγS binding using membranes from HEK-293 cells expressing the hCB1 receptor and membranes expressing the hCB2 receptor derived from either Sf9 (PerkinElmer) or from HEK-293 cells. Activities were compared to that of the known cannabinoid full agonist CP55940 (Alexis). The purpose of this experiment is to determine the potency of the compounds of the invention as agonists or antagonists toward each of the receptor tested.
[^35]-GTPγS binding reactions were performed at 30° C. in 96-well plates containing 5-10 μg membrane protein suspended in 0.1 ml binding buffer (20 mM HEPES-NaOH, pH 7.4, 5 mM MgCl2, 100 mM NaCt, 0.2% (w/v) bovine serum albumin) supplemented with 50 μM GDP and 0.06 nM-10 μM of the compound being tested. Binding was initiated by the addition of [^35S]GTPγS (0.3 nM final concentration). Incubations were performed for 90 minutes and were terminated by filtration on GF/C filter plates (PerkinElmer). Filters were washed ten times with ice-cold wash buffer (20 mM HEPES-NaOH, pH 7.4, 10 mM sodium pyrophosphate). Non-specific binding was measured in the presence of 15 μM GTPγS.
Assays were performed in duplicates. Data was analyzed by plotting on the X axis the log concentration against percent of specific [^35S]GTPγS binding out of basal [^35S]GTPγS binding on the Y axis, non-linear regression is then performed using GraphPad Prism, version 3.0 (GraphPad, San Diego, Calif.) to calculate the EC50 and Emax of the compound. The EC50 value represents the concentration at which there is 50% [^35S]GTPγS binding and the Emax value the upper plateau of the curve.
CP55940 is a full agonist of the human and rat CB2 receptors. […] Full or partial agonism at the receptor was determined relative to the Emax value of CP55940.

Male Sprague Dawley rats [2] = test: Chronic inflammatory pain, intra-articular CFA in knee, weight bearing; format: in vivo, rat
[3] = Cell line C2-4, Emax of compound divided by Emax of CP55940
[4] = Cell line C2-4, upper plateau of [35S]GTPγS binding curve
[5] = read-out: % Activity (relative to CP55,940)
[6] = Cell line C2-4, Emax of compound divided by Emax of CP55940, read-out: % Activity (relative to CP55,940)
[7] = Cell line C2-4, upper plateau of [35S]GTPγS binding curve, read-out: Emax (%)

Chain of human CB2 receptor (P34972 whole entry): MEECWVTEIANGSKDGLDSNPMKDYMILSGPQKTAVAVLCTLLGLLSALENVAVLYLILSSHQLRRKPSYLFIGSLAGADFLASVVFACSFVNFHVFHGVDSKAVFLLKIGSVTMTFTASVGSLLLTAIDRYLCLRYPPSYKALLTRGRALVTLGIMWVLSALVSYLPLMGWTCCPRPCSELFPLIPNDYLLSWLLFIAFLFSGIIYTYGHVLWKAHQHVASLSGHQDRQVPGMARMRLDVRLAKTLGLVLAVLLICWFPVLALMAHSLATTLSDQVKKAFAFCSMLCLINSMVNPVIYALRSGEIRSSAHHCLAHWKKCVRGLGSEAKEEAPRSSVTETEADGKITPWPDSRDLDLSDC

| Molecule | Emax (%) (human CB2 receptor; [4]) | Emax (human CB2 receptor) [%] | Emax (human CB2 receptor; [5]) [%] | Emax (human CB2 receptor; [6]) [%] | also measured |
| --- | --- | --- | --- | --- | --- |
| 4-(Bicyclo[2.2.1]hept-2-ylamino)-N-cyclopropylmethyl-2-trifluoromethyl-benzenesulfonamide [Compound 58] | 29 | – | – | – | reversal of thermal pain threshold (withdrawal latency) (Male Sprague Dawley rats [1]; 30 mg/kg i.p.): reversed the pain threshold; % Survival (female BALB/c mice; 10 mg/kg): 100%; Clinical score (female BALB/c mice; 10 mg/kg): 4.33 ± 0.22; Percentage change in body weight (female BALB/c mice; 10 mg/kg): −12.9 ± 2.6 %; mortality (female BALB/c mice; 30 mg/kg orally, day 1 to day 10): not observed; clinical score over time (female BALB/c mice; 30 mg/kg orally, day 1 to day 10, from day 8 until end of experiment): statistical significant amelioration; pathological score (female BALB/c mice; 30 mg/kg orally, day 1 to day 10, not statistically significant versus vehicle): 1.9±0.5; % Survival (female BALB/c mice; 30 mg/kg): 100%; Clinical score (female BALB/c mice; 30 mg/kg): 4.58 ± 0.2; Percentage change in body weight (female BALB/c mice; 30 mg/kg): −13.9 ± 2.3 %; efficacy in DSS-induced colitis (weight loss, clinical signs or gross pathology) (female BALB/c mice; administered intraperitoneally): modest efficacy; % Activity (relative to CP55,940) (human CB2 receptor; [3]): 40% |
| CCCCCCC(C)(C)c1ccc([C@@H]2C[C@H](O)CC[C@H]2CCCO)c(O)c1 [CP55940, reference compound] | – | 50 to 70 | – | – | – |
| O=S(=O)(NCC1CC1)c1ccc(Nc2ccc(Cl)cc2Cl)cc1C(F)(F)F [Compound 3, N-Cyclopropylmethyl-4-(2,4-dichloro-phenylamino)-2-trifluoromethyl-benzenesulfonamide] | – | 30 | 46 | – | – |
| O=S(=O)(NCC1CCCO1)c1ccc(NC2CC3CCC2C3)cc1C(F)(F)F (stereo not drawn) [Compound 26, 4-(Bicyclo[2.2.1]hept-2-ylamino)-N-(tetrahydro-furan-2-ylmethyl)-2-trifluoromethyl-benzenesulfonamide] | – | – | – | 35 | Emax (human CB2 receptor; [7]): 19% |
| O=S(=O)(NCC1CCOCC1)c1ccc(Nc2ccc(Cl)cc2Cl)cc1C(F)(F)F [Compound 35, 4-(2,4-Dichloro-phenylamino)-N-(tetrahydro-pyran-4-ylmethyl)-2-trifluoromethyl-benzenesulfonamide] | – | 19 | 35 | – | reversal of the CFA induced hypersensitivity (weight bearing) (Male Sprague Dawley rats [2]; 15 mg/kg, b.i.d, three days of administration): significant reversal |
| O=S(=O)(NCC1CCOCC1)c1ccc(NC2CC3CCC2C3)cc1C(F)(F)F (stereo not drawn) [Compound 41, 4-(Bicyclo[2.2.1]hept-2-ylamino)-N-(tetrahydro-pyran-4-ylmethyl)-2-trifluoromethyl-benzenesulfonamide] | – | – | – | 36 | Emax (human CB2 receptor; [7]): 26%; analgesic effect (% reversal) (Male Sprague Dawley rats [2]; 15 mg/kg b.i.d., day 1 and 2 post administration): 30% |
| COc1ccc(Nc2ccc(S(=O)(=O)NCC3CC3)c(C(F)(F)F)c2)c(OC)c1 [Compound 44, N-cyclopropylmethyl-4-(2,4-dimethoxy-phenylamino)-2-trifluoromethyl-benzenesulfonamide] | – | 5 | 9.8 | – | – |
| CC(C)(NS(=O)(=O)c1ccc(NC2CC3CCC2C3)cc1C(F)(F)F)C1CC1 (stereo not drawn) [Compound 74, 4-(Bicyclo[2.2.1]hept-2-ylamino)-N-(1-cyclopropyl-1-methyl-ethyl)-2-trifluoromethyl-benzenesulfonamide] | – | 30 | 45 | – | – |
| O=S(=O)(NCC1CC1)c1ccc(NC2CCCCCC2)cc1C(F)(F)F [Compound 87, 4-Cycloheptylamino-N-cyclopropylmethyl-2-trifluoromethyl-benzenesulfonamide] | – | 21 | 29 | – | – |
| O=S(=O)(NCC1CC1)c1ccc(NC2CCCCCCC2)cc1C(F)(F)F [Compound 88, 4-Cyclooctylamino-N-cyclopropylmethyl-2-trifluoromethyl-benzenesulfonamide] | 5 | – | – | 9.8 | – |
| O=S(=O)(NCC1CC1)c1ccc(NN2CCCCCC2)cc1C(F)(F)F [Compound 105, 4-(Azepan-1-ylamino)-N-cyclopropylmethyl-2-trifluoromethyl-benzenesulfonamide] | – | 34 | 43 | – | – |
| CC(C)(NS(=O)(=O)c1ccc(NC2CCCCC2)cc1C(F)(F)F)C1CC1 [Compound 108, 4-Cyclohexylamino-N-(1-cyclopropyl-1-methyl-ethyl)-2-trifluoromethyl-benzenesulfonamide] | 39 | – | – | 49.3 | – |
| N-Cyclopropylmethyl-4-(piperidin-1-ylamino)-2-trifluoromethyl-benzenesulfonamide [Compound 94] | 20 | – | – | – | reversal of thermal pain threshold (percent of baseline value, % reversal) (Male Sprague Dawley rats [1]; 60 mg/kg i.p.): reversed the pain threshold; % Activity (relative to CP55,940) (human CB2 receptor; [3]): 30% |

Source: US9422235B2, “Sulfonamide derivatives with therapeutic indications” (Pharmos Corporation, priority 2006, dated 2016)
